Assay [1] has as its target T1, ERBB2-A775_G776insYVMA (ERBB2YVMA) (Homo sapiens, UniProt P04626, INS775YVMA).
T1 construct: purchased SignalChem E27-13BG
Put plainly: HotSpot radiometric kinase activity assay, ERBB2YVMA. Particulars: biochemical activity, 20 nM ERBB2YVMA, 10 μM 33P-ATP, 2 hours, read-out: HER2 - YVMA IC50. Here is the method: The purpose of the wtERBB2, ERBB2-A775_G776insYVMA (ERBB2YVMA), wtEGFR biochemical assay was to evaluate the inhibition (% inhibition and IC50 values) of the small molecule inhibitors by using the “HotSpot” radiometric kinase activity assay. HotSpot assays monitor the production of kinase substrate by the radioactive gamma phosphate of adenosine triphosphate (33P-ATP) during biochemical reactions. HotSpot assays was performed in steps upon completion of the kinase reaction: deposition of a reaction mixture aliquot onto P81 ion exchange paper, extensive washing of the aforementioned P81 paper using phosphoric acid to remove unbound radiolabeled 33P-ATP from the P81 paper, and finally visualization and quantification of the dried P81 paper utilizing a phosphoimager. […] Typical reaction solutions (10 μL, final reaction volume) contained the following buffer conditions: 20 mM Hepes (pH 7.5), 10 mM MgCl2, 1 mM EGTA, 0.01% Brij35, 0.02 mg/mL BSA, 0.1 mM Na3VO4, 2 mM DTT, 1% DMSO. The assay was primed by preparing a fresh 0.2 mg/mL solution of pEY (Sigma Cat: P7244) substrate in the reaction buffer and supplementing that solution with […] of MnCl2 as substrate cofactor (Sigma Cat: M9522). The kinase of interest was then added to the solution at the appropriate concentration (30 nM wtERBB2 from, or 20 nM ERBB2YVMA, or 4 nM wtEGFR) and gently mixed prior to delivery of compound in 100% DMSO by acoustic dispensing (Beckman Echo550). Compound, Kinase, and substrate were allowed to incubate for 20 min at room temperature prior to the initiation of the reaction by addition of 33P-ATP (PerkinElmer Cat: NEG602, final conc 10 μM). […] IC50 determinations were made from a plot of kinase activity as a function of inhibitor concentration fit to the 4-parameter IC50 equation with the enzyme concentration held constant using GraphPad Prism (San Diego).

The target of the next assay is BaF3_HER2WT cells (Homo sapiens, UniProt P04626). Put plainly: Cell growth inhibition assay (CellTiterGlo), BaF3_HER2WT. It is filed as cell-based. For orientation: In ATP-based viability assays light output follows the ATP content of the culture.
BaF3_HER2WT cells, sequence (P04626 whole entry, change not shown): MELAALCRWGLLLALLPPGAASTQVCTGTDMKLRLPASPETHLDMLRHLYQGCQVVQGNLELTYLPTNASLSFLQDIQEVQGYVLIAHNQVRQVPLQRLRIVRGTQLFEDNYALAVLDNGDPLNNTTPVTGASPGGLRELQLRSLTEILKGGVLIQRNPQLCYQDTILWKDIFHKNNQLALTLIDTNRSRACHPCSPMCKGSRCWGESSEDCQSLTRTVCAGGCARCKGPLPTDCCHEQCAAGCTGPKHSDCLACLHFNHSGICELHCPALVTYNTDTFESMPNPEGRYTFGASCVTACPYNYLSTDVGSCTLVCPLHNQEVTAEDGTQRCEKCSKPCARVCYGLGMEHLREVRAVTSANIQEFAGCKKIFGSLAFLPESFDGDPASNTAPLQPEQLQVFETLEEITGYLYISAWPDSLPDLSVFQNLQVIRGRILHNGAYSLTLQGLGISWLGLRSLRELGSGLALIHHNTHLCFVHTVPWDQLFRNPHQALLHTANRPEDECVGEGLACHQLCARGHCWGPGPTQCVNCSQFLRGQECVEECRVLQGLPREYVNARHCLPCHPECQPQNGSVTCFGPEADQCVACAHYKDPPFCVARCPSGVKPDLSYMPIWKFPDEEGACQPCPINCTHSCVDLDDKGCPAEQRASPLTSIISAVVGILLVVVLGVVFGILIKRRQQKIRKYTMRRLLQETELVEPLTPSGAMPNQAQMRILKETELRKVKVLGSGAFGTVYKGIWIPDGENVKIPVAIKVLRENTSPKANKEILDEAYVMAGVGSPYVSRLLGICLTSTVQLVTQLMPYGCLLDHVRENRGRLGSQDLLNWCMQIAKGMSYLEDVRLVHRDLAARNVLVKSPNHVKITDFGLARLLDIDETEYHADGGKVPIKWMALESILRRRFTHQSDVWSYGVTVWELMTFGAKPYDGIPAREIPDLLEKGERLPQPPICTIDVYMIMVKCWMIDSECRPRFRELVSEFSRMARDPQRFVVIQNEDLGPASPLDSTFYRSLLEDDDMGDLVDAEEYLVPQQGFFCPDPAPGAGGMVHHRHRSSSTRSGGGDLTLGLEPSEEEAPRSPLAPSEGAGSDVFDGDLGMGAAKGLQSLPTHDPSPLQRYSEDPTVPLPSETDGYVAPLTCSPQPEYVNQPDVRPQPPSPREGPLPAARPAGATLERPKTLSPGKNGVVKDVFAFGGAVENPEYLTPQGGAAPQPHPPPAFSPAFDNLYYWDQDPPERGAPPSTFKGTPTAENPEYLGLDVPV
Another assay concerns the target BaF3_HER2YVMA cells (Homo sapiens, UniProt P04626, DUP772-775, cells depend on it). Put plainly: Cell growth inhibition assay (CellTiterGlo), BaF3_HER2YVMA. It is filed as cell-based.
Another assay has as its target BaF3_EGFRWT cells (Homo sapiens, UniProt P00533). Put plainly: Cell growth inhibition assay (CellTiterGlo), BaF3_EGFRWT. In kind it is cell-based.
Where [2] appears, read: 3-day treatment, CellTiterGlo, read-out: Cell growth inhibition activity, HER2 WT.
Setting [3] is: 3-day treatment, CellTiterGlo, read-out: Cell growth inhibition activity, HER2 - YVMA.
[4] abbreviates: 3-day treatment, CellTiterGlo, read-out: Cell growth inhibition activity, EGFR WT.
Setting [5] is: cell growth inhibition, 3 days treatment, read-out: HER2 WT IC50.
Setting [6] is: cell growth inhibition, 3 days treatment, read-out: HER2 - YVMA IC50.
The mark [7] stands for this setting: cell growth inhibition, 80 ng/mL EGF, 3 days treatment, read-out: EGFR WT IC50.

Read-outs that look alike come from different tables or passages of the source.

BaF3_HER2YVMA cells, sequence (P04626 with tags, fused parts or gaps DUP772-775): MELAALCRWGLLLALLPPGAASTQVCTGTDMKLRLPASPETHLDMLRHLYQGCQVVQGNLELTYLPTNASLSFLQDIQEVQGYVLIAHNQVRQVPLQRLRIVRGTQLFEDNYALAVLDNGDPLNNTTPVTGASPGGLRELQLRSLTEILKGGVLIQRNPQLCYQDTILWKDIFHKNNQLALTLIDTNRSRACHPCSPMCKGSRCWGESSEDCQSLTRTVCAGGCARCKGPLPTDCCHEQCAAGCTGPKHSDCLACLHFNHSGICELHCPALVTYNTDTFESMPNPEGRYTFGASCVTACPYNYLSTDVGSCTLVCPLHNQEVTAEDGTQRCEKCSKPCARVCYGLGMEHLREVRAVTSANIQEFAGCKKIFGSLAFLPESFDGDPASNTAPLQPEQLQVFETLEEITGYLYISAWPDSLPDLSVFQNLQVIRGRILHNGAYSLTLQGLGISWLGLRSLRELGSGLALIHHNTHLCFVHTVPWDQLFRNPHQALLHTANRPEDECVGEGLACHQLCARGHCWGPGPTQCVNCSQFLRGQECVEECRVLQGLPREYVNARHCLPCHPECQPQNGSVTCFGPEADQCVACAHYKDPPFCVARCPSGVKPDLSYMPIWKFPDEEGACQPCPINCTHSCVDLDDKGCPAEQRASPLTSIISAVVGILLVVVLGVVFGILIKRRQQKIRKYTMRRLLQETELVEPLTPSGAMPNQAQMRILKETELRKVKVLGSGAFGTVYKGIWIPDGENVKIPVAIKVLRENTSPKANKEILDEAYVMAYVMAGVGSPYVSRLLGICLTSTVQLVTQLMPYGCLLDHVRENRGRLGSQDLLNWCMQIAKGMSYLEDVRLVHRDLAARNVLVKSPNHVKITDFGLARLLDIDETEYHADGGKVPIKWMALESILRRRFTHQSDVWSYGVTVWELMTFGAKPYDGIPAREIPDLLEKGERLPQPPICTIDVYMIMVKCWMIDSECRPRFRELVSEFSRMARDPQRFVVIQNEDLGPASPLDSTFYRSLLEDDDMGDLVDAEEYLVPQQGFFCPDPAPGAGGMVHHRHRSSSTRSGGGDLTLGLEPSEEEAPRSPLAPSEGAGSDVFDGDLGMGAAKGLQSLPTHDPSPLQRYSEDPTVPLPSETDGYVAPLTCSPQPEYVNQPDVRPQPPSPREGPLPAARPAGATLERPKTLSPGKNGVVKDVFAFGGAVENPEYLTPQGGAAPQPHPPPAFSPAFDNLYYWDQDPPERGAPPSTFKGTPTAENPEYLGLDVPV
BaF3_EGFRWT cells, sequence (P00533 whole entry, change not shown): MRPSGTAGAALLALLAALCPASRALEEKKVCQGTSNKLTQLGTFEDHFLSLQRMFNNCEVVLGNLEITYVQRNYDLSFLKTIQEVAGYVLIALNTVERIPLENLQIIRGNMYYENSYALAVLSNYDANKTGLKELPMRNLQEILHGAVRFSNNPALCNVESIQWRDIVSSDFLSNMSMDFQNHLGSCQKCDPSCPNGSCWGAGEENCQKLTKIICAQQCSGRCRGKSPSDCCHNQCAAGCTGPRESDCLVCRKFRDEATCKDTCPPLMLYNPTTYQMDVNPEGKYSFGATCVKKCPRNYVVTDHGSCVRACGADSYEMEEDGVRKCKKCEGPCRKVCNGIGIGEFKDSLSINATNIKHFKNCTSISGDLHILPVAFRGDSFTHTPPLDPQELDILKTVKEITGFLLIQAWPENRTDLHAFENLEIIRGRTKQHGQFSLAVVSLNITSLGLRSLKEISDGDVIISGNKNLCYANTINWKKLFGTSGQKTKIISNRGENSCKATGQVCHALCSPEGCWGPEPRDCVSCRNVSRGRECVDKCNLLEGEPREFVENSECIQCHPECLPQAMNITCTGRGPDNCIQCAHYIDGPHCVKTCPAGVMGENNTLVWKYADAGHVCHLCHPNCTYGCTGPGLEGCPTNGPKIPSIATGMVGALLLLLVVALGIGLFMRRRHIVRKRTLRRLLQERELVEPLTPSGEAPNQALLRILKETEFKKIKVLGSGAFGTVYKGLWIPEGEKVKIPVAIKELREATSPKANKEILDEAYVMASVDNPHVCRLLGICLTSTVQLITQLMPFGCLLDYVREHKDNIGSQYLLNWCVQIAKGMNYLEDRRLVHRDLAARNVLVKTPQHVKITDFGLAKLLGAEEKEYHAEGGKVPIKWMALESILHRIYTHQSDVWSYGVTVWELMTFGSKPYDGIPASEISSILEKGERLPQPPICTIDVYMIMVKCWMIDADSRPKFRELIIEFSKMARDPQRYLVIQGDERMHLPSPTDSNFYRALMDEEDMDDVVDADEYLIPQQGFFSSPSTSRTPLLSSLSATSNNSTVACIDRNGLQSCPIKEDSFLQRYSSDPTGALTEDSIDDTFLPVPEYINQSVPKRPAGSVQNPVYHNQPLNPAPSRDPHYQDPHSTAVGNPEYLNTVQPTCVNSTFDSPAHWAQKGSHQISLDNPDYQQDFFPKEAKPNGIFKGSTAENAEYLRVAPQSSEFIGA
T1 sequence (P04626 with tags, fused parts or gaps INS775YVMA limits assumed): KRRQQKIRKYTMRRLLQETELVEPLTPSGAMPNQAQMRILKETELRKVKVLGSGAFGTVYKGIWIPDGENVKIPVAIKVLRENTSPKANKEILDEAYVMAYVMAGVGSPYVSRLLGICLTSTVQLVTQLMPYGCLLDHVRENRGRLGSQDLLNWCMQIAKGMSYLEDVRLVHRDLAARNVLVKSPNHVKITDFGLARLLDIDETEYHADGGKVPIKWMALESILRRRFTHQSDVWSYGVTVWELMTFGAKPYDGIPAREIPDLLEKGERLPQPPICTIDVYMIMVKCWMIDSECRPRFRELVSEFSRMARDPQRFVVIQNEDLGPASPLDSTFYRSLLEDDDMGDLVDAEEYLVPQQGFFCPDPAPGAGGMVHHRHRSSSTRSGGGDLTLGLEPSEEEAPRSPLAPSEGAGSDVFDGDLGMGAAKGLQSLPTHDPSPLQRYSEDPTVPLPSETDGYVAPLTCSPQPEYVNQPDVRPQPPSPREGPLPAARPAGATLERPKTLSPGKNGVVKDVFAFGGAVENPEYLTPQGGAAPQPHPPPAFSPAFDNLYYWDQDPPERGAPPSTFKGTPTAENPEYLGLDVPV

On to `Cc1cc(Nc2ncnn3ccc(C4CCN(C(=O)/C=C/CN(C)C)C4)c23)ccc1Oc1ccn2ncnc2c1` (stereo not shown) [Example 98, (E)-1-(3-(4-((4-([1,2,4]triazolo[1,5-a]pyridin-7-yloxy)-3-methylphenyl)amino)-pyrrolo-[2,1-f][1,2,4]triazin-5-yl)pyrrolidin-1-yl)-4-(dimethylamino)but-2-en-1-one], for which the IC50 in assay [1] was below 200 nM. The GI50 at BaF3_HER2WT cells (setting [2]) is below 200 nM; at BaF3_HER2YVMA cells (setting [3]), 200 to 500 nM; at BaF3_EGFRWT cells (setting [4]), 1500 to 5000 nM.

`Cc1cc(Nc2ncnn3ccc(C4CN(C(=O)/C=C/CN5CCCC5)C4)c23)ccc1Oc1ccn2ncnc2c1` [Example 97, (E)-1-(3-(4-((4-([1,2,4]triazolo[1,5-a]pyridin-7-yloxy)-3-methylphenyl)amino)pyrrolo[2,1-f][1,2,4]triazin-5-yl)azetidin-1-yl)-4-(pyrrolidin-1-yl)but-2-en-1-one]: the IC50 in assay [1] is below 200 nM. The GI50 was below 200 nM on BaF3_HER2WT cells (setting [2]), below 200 nM at BaF3_HER2YVMA cells (setting [3]) and 1500 to 5000 nM at BaF3_EGFRWT cells (setting [4]).

For the compound `Cc1cc(Nc2ncnn3ccc(C4CN(C(=O)/C=C/CN(C)C)C4)c23)ccc1Oc1ccn2ncnc2c1` [Example 1, (E)-1-(3-(4-((4-([1,2,4]triazolo[1,5-a]pyridin-7-yloxy)-3-methylphenyl)amino)pyrrolo[2,1-f][1,2,4]triazin-5-yl)azetidin-1-yl)-4-(dimethylamino)but-2-en-1-one], the concentration for half-maximal inhibition (IC50) in assay [1] is below 200 nM. In addition, the GI50 at BaF3_HER2WT cells (setting [2]) is below 200 nM; on BaF3_HER2YVMA cells (setting [3]) it was below 200 nM; at BaF3_EGFRWT cells (setting [4]) it was 1500 to 5000 nM.

Turning to `C=CC(=O)N1CC(c2ccn(-c3ccn4ncnc(Nc5ccc(Oc6ccn7ncnc7c6)c(C)c5)c34)n2)C1` [Example 10, 1-(3-(1-(4-((4-([1,2,4]triazolo[1,5-a]pyridin-7-yloxy)-3-methylphenyl)amino)pyrrolo[2,1-f][1,2,4]triazin-5-yl)-1H-pyrazol-3-yl)azetidin-1-yl)prop-2-en-1-one], the IC50 in assay [1] was below 200 nM. Besides, the figures for the GI50 on BaF3_HER2WT cells (setting [2]), on BaF3_HER2YVMA cells (setting [3]) and at BaF3_EGFRWT cells (setting [4]) were 200 to 500 nM, 500 to 1500 nM and 1500 to 5000 nM, respectively.

In the case of `C=C(C(=O)O)C(=O)N1CCC(c2ccn3ncnc(Nc4ccc(Oc5ccn6ncnc6c5)c(C)c4)c23)CC1` [Example 20, 2-(4-(4-((4-([1,2,4]triazolo[1,5-a]pyridin-7-yloxy)-3-methylphenyl)amino)pyrrolo[2,1-f][1,2,4]triazin-5-yl)piperidine-1-carbonyl)acrylic acid], the GI50 at BaF3_HER2WT cells (setting [2]), on BaF3_HER2YVMA cells (setting [3]) and at BaF3_EGFRWT cells (setting [4]) was 1500 to 5000 nM each time.

On to `Cc1cc(Nc2ncnn3ccc(C4CC5CCC4CN5C(=O)/C=C/CN(C)C)c23)ccc1Oc1ccn2ncnc2c1` (single isomer, unassigned) [Examples 137 and 138, second eluting isomer, (E)-1-(5-(4-((4-([1,2,4]triazolo[1,5-a]pyridin-7-yloxy)-3-methylphenyl)amino)pyrrolo[2,1-f][1,2,4]triazin-5-yl)-2-azabicyclo[2.2.2]octan-2-yl)-4-(dimethylamino)but-2-en-1-one], for which the GI50 at BaF3_HER2WT cells (setting [5]) fell in the range of 500 to 1500 nM; at BaF3_HER2YVMA cells (setting [6]) it was 1500 to 5000 nM; at BaF3_EGFRWT cells (setting [7]), 1500 to 5000 nM.

Turning to `Cc1cc(Nc2ncnn3ccc(C4CCN(C(=O)/C=C/C5CCCN5C)CC4)c23)ccc1Oc1ccn2ncnc2c1` (stereo not shown) [Example 65, (E)-1-(4-(4-((4-([1,2,4]triazolo[1,5-a]pyridin-7-yloxy)-3-methylphenyl)amino)pyrrolo[2,1-f][1,2,4]triazin-5-yl)piperidin-1-yl)-3-(1-methylpyrrolidin-2-yl)prop-2-en-1-one], the GI50 is below 200 nM on BaF3_HER2WT cells (setting [2]), below 200 nM at BaF3_HER2YVMA cells (setting [3]) and 1500 to 5000 nM at BaF3_EGFRWT cells (setting [4]).

Consider `C=CC(=O)N1CCC2CCC(C1)N2c1ccn2ncnc(Nc3ccc(Oc4ccn5ncnc5c4)c(C)c3)c12` (stereo not shown) [Example 55, 1-(9-(4-((4-([1,2,4]triazolo[1,5-a]pyridin-7-yloxy)-3-methylphenyl)amino)pyrrolo[2,1-f][1,2,4]triazin-5-yl)-3,9-diazabicyclo[4.2.1]nonan-3-yl)prop-2-en-1-one], for which the values for the GI50 on BaF3_HER2WT cells (setting [2]), on BaF3_HER2YVMA cells (setting [3]) and on BaF3_EGFRWT cells (setting [4]) were below 200 nM, 500 to 1500 nM and 1500 to 5000 nM, respectively.

Regarding `C=CC(=O)N1CC=C(c2ccn3ncnc(Nc4ccc(Oc5ccn6ncnc6c5)c(C)c4)c23)C1` [Example 28, 1-(3-(4-((4-([1,2,4]triazolo[1,5-a]pyridin-7-yloxy)-3-methylphenyl)amino)pyrrolo[2,1-f][1,2,4]triazin-5-yl)-2,5-dihydro-1H-pyrrol-1-yl)prop-2-en-1-one acetate], the GI50 at BaF3_HER2WT cells (setting [2]) was below 200 nM; on BaF3_HER2YVMA cells (setting [3]) it was 500 to 1500 nM; on BaF3_EGFRWT cells (setting [4]), 1500 to 5000 nM.

With `Cc1cc(Nc2ncnn3ccc(C(=O)NCCCN(C)C)c23)ccc1N` [Example 181, 4-((4-amino-3-methylphenyl)amino)-N-(3-(dimethylamino)propyl)pyrrolo[2,1-f][1,2,4]triazine-5-carboxamide], the figures for the GI50 at BaF3_HER2WT cells (setting [2]), on BaF3_HER2YVMA cells (setting [3]) and on BaF3_EGFRWT cells (setting [4]) were 1500 to 5000 nM, above 5000 nM and above 5000 nM, respectively.

Turning to `C=CC(=O)N1C[C@H]2C[C@@H]1C[C@H]2c1ccn2ncnc(Nc3ccc(Oc4ccn5ncnc5c4)c(C)c3)c12` (relative stereo) [Example 104, Rel-1-1(1S,4S,5R)-5-{4-[(3-methyl-4-{[1,2,4]triazolo[1,5-a]pyridin-7-yloxy}phenyl)amino]pyrrolo[2,1-f][1,2,4]triazin-5-yl}-2-azabicyclo[2.2.1]heptan-2-yl]prop-2-en-1-one], the GI50 on BaF3_HER2WT cells (setting [2]) was 500 to 1500 nM; at BaF3_HER2YVMA cells (setting [3]), 1500 to 5000 nM; on BaF3_EGFRWT cells (setting [4]), 1500 to 5000 nM.

In the case of `C=C(CN(C)C)C(=O)N1C2C=C(c3ccn4ncnc(Nc5ccc(Oc6ccn7ncnc7c6)c(C)c5)c34)CC1CC2` (stereo not shown) [Example 30, 1-(3-(4-((4-([1,2,4]triazolo[1,5-a]pyridin-7-yloxy)-3-methylphenyl)amino)pyrrolo[2,1-f][1,2,4]triazin-5-yl)-8-azabicyclo[3.2.1]oct-2-en-8-yl)-2-((dimethylamino)methyl)prop-2-en-1-one acetate], the GI50 on BaF3_HER2WT cells (setting [2]) is below 200 nM; on BaF3_HER2YVMA cells (setting [3]) it was below 200 nM; at BaF3_EGFRWT cells (setting [4]), 1500 to 5000 nM.

For the compound `Cc1cc(Nc2ncnn3ccc(C4CCN(C(=O)/C=C/CN5CC6COCC6C5)CC4)c23)ccc1Oc1ccn2ncnc2c1` (stereo not shown) [Example 119, E-1-(4-(4-((4-([1,2,4]triazolo[1,5-a]218midazol-7-yloxy)-3-methylphenyl)amino)pyrrolo[2,1-f][1,2,4]triazin-5-yl)piperidin-1-yl)-4-(tetrahydro-1H-furo[3,4-c]pyrrol-5(3H)-yl)but-2-en-1-one], the GI50 was below 200 nM on BaF3_HER2WT cells (setting [2]), below 200 nM at BaF3_HER2YVMA cells (setting [3]) and 1500 to 5000 nM at BaF3_EGFRWT cells (setting [4]).

`C=C(CN(C)C)C(=O)N1C2CCC1CC(c1ccn3ncnc(Nc4ccc(Oc5ccn6ncnc6c5)c(C)c4)c13)C2` (single isomer, unassigned) [Examples 126 and 127, first eluting isomer, 1-(3-(4-((4-([1,2,4]triazolo[1,5-a]pyridin-7-yloxy)-3-methylphenyl)amino)pyrrolo[2,1-f][1,2,4]triazin-5-yl)-8-azabicyclo[3.2.1]octan-8-yl)-2-((dimethylamino)methyl)prop-2-en-1-one]: the GI50 at BaF3_HER2WT cells (setting [5]) was below 200 nM; at BaF3_HER2YVMA cells (setting [6]), 200 to 500 nM; on BaF3_EGFRWT cells (setting [7]) it was 1500 to 5000 nM.

`Cc1cc(Nc2ncnn3ccc(C4CCN(C(=O)/C=C/CN5CCOCC5)CC4)c23)ccc1Oc1ccn2ncnc2c1` [Example 56, (E)-1-(4-(4-((4-([1,2,4]triazolo[1,5-a]pyridin-7-yloxy)-3-methylphenyl)amino)pyrrolo[2,1-f][1,2,4]triazin-5-yl)piperidin-1-yl)-4-morpholinobut-2-en-1-one]: the figures for the GI50 at BaF3_HER2WT cells (setting [2]), at BaF3_HER2YVMA cells (setting [3]) and on BaF3_EGFRWT cells (setting [4]) were below 200 nM, below 200 nM and 1500 to 5000 nM, respectively.

With `COC1CCN(C/C=C/C(=O)N2CC(c3ccn4ncnc(Nc5ccc(Oc6ccn7ncnc7c6)c(C)c5)c34)C2)C1` (stereo not shown) [Example 41, (E)-1-(3-(4-((4-([1,2,4]triazolo[1,5-a]pyridin-7-yloxy)-3-methylphenyl)amino)pyrrolo[2,1-f][1,2,4]triazin-5-yl)azetidin-1-yl)-4-(3-methoxypyrrolidin-1-yl)but-2-en-1-one], the GI50 at BaF3_HER2WT cells (setting [2]) is below 200 nM; at BaF3_HER2YVMA cells (setting [3]), below 200 nM; at BaF3_EGFRWT cells (setting [4]), 1500 to 5000 nM.

A word on the IC50: it is the concentration at which inhibition is half-maximal.

Values taken from patent US20240132521A1, “COMPOUNDS AND METHODS FOR MODULATING HER2” (Iambic Therapeutics, Inc., priority 2022, published 2024).
